Measurements from patent US20250136581A1, “SUBSTITUTED TRIAZOLE DERIVATIVE, PREPARATION METHOD THEREFOR, PHARMACEUTICAL COMPOSITION THEREOF, AND USE THEREOF” (SHANGHAI SIMR BIOTECHNOLOGY CO., LTD., priority 2021, published 2025).

Columns and labels:
[1] = biological target: α5-GABAA receptor (α5, β3, γ2 subunits) (Homo sapiens (Human), UniProt P18507+P31644); test: Whole cell patch clamp, inverse agonist efficacy in HEK293 cells expressing α5-GABAA receptor; format: cell-based; conditions: HEK293, drug 100 nM, GABA 0.05 μM, −60 mV; read-out: Compound inverse agonist efficacy %
Outline: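 Compounds screened at 100 nM against current induced by 0.05 μM GABA in monoclonal HEK293 cells stably expressing α5β3γ2 GABAA receptors. Recording by whole-cell voltage clamp (−60 mV, pH 7.4 bath, CsCl pipette); efficacy calculated from leak-corrected currents before and after drug.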

[2] = biological target: human α5β3γ2 receptors (α5-GABAA receptor) (Homo sapiens (Human), UniProt P18507+P31644); test: 3H-flunitrazepam competition binding, human α5β3γ2 GABAA receptor; conditions: HEK293 cell membranes, 1 nM 3H-flunitrazepam; read-out: α5-GABAAR Ki
Outline: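 Radioligand displacement of 1 nM 3H-flunitrazepam from membranes of HEK293 lines stably expressing the human subtypes, 1 h at room temperature, compound in 8-point 4-fold series. Bound label on GF/C filters counted by scintillation; Ki derived from fitted IC50, with flumazenil as low control.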

[3] = biological target: human α1β3γ2 receptors (Homo sapiens (Human), UniProt P14867+P18507); test: 3H-flunitrazepam competition binding, human α1β3γ2 GABAA receptor; conditions: HEK293 cell membranes, 1 nM 3H-flunitrazepam; read-out: Ki α1
Description: (§1) The affinity of the compound to each subtype of GABAA receptor was determined by competing for the binding of ^3H-flunitrazepam to HEK293 cells stably expressing human α1β3γ2, α2β3γ2, α3β3γ2, and α5β3γ2 receptors.
(§2) The cells were suspended in 50 mM Tris-HCl buffer (pH=7.4), homogenized 10 times on ice with a homogenizer for 20 seconds, and centrifuged at 1000 g for 10 minutes at 4° C. The supernatant was collected, and the above steps were repeated. The supernatant was centrifuged at 4° C. (33800 g; Thermo, rotor: A27-8×50) for 60 minutes, and the precipitate was resuspended in Tris buffer (50 mM Tris-HCl, 10 mM MgCl2, 0.5 mM EDTA, 10% glycerol). Protein was measured (BCA method, Pierce), and 1 mL aliquots were prepared and stored at −80° C.
(§3) The radioligand competition binding assay was performed in a 200 μL system (96-well plate) containing 100 μL of cell membrane. The concentration of ^3H-flunitrazepam was 1 nM and the concentration of the test compound was in the range of […]. Flumazenil was used as a control. 1 μL of 2 mM flumazenil (final concentration […]) was added to the low signal control well (Low control, LC), and 1 μL of DMSO was added to the high signal control well (High control, HC). The final concentration of target membrane protein was […]. All test compound sample storage solutions were 10 mM. The working concentration of the samples was to dilute all the samples to 0.2 mM with DMSO, followed by 4-fold serial gradient dilutions for a total of 8 concentration gradients. The 96-well plate was sealed with a sealing film, and then incubated on a shaker at room temperature for 1 hour. At the same time, the GF/C filter plate was soaked in soaking buffer (0.3% PEI, stored at 4° C.) for at least 0.5 hours. After the binding incubation was completed, the cells were collected onto a GF/C filter plate using a cell harvester. The plate was washed four times with washing buffer (50 mM Tris-HCl, pH 7.4, stored at 4° C.). After drying in a 50° C. oven for 1 hour, the bottom of the dried GF/C filter plate was sealed. The residual radioactivity on the filter membrane was detected using liquid scintillation counting. 50 μL of scintillation fluid was added to each well, and the plate was sealed. The readings were taken using a Microbeta2. The inhibitory activity of the test sample on the binding of ^3H-flunitrazepam to GABAA receptor membrane proteins was calculated, and the IC50 of each test sample was calculated by dose-effect curve fitting (GraphPad Prism 5 software), and the Ki of the sample was calculated from the IC50, thus evaluating the binding ability of the sample to the various subtypes of GABAA receptors.

[4] = biological target: human α3β3γ2 receptors (Homo sapiens (Human), UniProt P18507+P34903); test: 3H-flunitrazepam competition binding, human α3β3γ2 GABAA receptor; conditions: HEK293 cell membranes, 1 nM 3H-flunitrazepam; read-out: Ki α3
Description: as §1, §2, §3

[5] = biological target: human α2β3γ2 receptors (Homo sapiens (Human), UniProt P18507+P47869); test: 3H-flunitrazepam competition binding, human α2β3γ2 GABAA receptor; conditions: HEK293 cell membranes, 1 nM 3H-flunitrazepam; read-out: Ki α2
Description: as §1, §2, §3

inhibition at 0.1 µM [1] | Ki [2] | Ki [3] | Ki [4] | Ki [5] | SMILES
49.6% | 1.27 nM | 52.8 nM | 10.3 nM | 40.1 nM | Cc1nnn(-c2ccc(C(F)F)cc2)c1COc1ccc(N2CC(C(=O)Nc3cnn(C)c3)C2)nn1 [Example 103, 1-(6-((1-(4-(Difluoromethyl)phenyl)-4-methyl-1H-1,2,3-triazol-5-yl)methoxy)pyridazin-3-yl)-N-(1-methyl-1H-pyrazol-4-yl)azetidine-3-carboxamide]
53.7% | 0.52 nM | 15.8 nM | 7.34 nM | 10.4 nM | Cc1nnn(-c2ccc(C(F)F)cc2)c1COc1ccc(N2CCNC2=O)nn1 [Example 19, 1-(6-((1-(4-(Difluoromethyl)phenyl)-4-methyl-1H-1,2,3-triazol-5-yl)methoxy)pyridazin-3-yl)imidazolidin-2-one]
50.5% | 0.84 nM | 56.9 nM | 14 nM | 17.1 nM | Cc1nnn(-c2ccc(C(F)F)cc2)c1COc1ccc(N2CC(=O)N3CCNCC3C2)nn1 (stereo not drawn) [Example 68, 2-(6-((1-(4-(Difluoromethyl)phenyl)-4-methyl-1H-1,2,3-triazol-5-yl)methoxy)pyridazin-3-yl)hexahydro-1H-pyrazino[1,2-a]pyrazin-4-(6H)-one]
40.4% | 0.89 nM | 80.5 nM | 17 nM | 22.2 nM | Cc1nnn(-c2ccc(C(F)F)cc2)c1COc1ccc(N2CC(=O)NC3(CC3)C2)nn1 [Example 8, 7-(6-((1-(4-(Difluoromethyl)phenyl)-4-methyl-1H-1,2,3-triazol-5-yl)methoxy)pyridazin-3-yl)-4,7-diazaspiro[2.5]octan-5-one]
48.4% | 1.66 nM | 65.2 nM | 22.7 nM | 50.1 nM | Cc1nnn(-c2ccc(C(F)F)cc2)c1COc1ccc(N2C[C@H]3C[C@@H]2C(=O)N3)nn1 [Example 116, (1R,4R)-5-(6-((1-(4-(Difluoromethyl)phenyl)-4-methyl-1H-1,2,3-triazol-5-yl)methoxy)pyridazin-3-yl)-2,5-diazabicyclo[2.2.1]heptan-3-one]
54.5% | 0.96 nM | 58.1 nM | 16.8 nM | 12.9 nM | Cc1nnn(-c2ccc(C(F)F)cc2)c1COc1ccc(N2CC(=O)NC(=O)C2)nn1 [Example 5, 4-(6-((1-(4-(Difluoromethyl)phenyl)-4-methyl-1H-1,2,3-triazol-5-yl)methoxy)pyridazin-3-yl)piperazine-2,6-dione]
44.1% | 3.73 nM | 21.9 nM | – | 13.6 nM | Cc1nnn(-c2ccc(C(F)F)cc2)c1COc1ccc(N2CCOC2=O)nn1 [Example 23, 3-(6-((1-(4-(Difluoromethyl)phenyl)-4-methyl-1H-1,2,3-triazol-5-yl)methoxy)pyridazin-3-yl)oxazolidin-2-one]
51.6% | 0.39 nM | 178 nM | 27.5 nM | 56.4 nM | Cc1nnn(-c2ccc(C(F)F)cc2)c1COc1ccc(N2CCN3CCNC(=O)[C@H]3C2)nn1 [Example 55, (R)-8-(6-((1-(4-(Difluoromethyl)phenyl)-4-methyl-1H-1,2,3-triazol-5-yl)methoxy)pyridazin-3-yl)hexahydro-2H-pyrazino[1,2-a]pyrazin-1(6H)-one]
43.7% | 2.03 nM | 246 nM | 28.4 nM | 45.9 nM | N#Cc1nnn(-c2ccc(C(F)F)cc2)c1COc1ccc(N2CCNC(=O)C2)nn1 [Example 78, 1-(4-(Difluoromethyl)phenyl)-5-(((6-(3-oxopiperazin-1-yl)pyridazin-3-yl)oxy)methyl)-1H-1,2,3-triazole-4-carbonitrile]
48.7% | 2.46 nM | 266 nM | 67.3 nM | 149 nM | Cc1nnn(-c2ccc(C(F)F)cc2)c1COc1ccc(N2CCN3c4ccccc4NC(=O)[C@@H]3C2)nn1 [Example 122, (S)-3-(6-((1-(4-(Difluoromethyl)phenyl)-4-methyl-1H-1,2,3-triazol-5-yl)methoxy)pyridazin-3-yl)-2,trans-3,4,4a-tetrahydro-1H-pyrazino[1,2-a]quinoxalin-5(6H)-one]
50.8% | 0.55 nM | 80.6 nM | 14.1 nM | 16.8 nM | Cc1nnn(-c2ccc(C(F)F)cc2)c1COc1ccc(N2CC(=O)N3CCOC[C@H]3C2)nn1 [Example 173, (R)-8-(6-((1-(4-(Difluoromethyl)phenyl)-4-methyl-1H-1,2,3-triazol-5-yl)methoxy)pyridazin-3-yl)hexahydropyrazino[2,1-c][1,4]oxazin-6(1H)-one]
50.9% | 2.55 nM | 294 nM | 49.8 nM | 71.6 nM | Cc1nnn(-c2ccc(C(F)F)cc2)c1COc1ccc(N2CCN3CCNC(=O)[C@@H]3C2)nn1 [Example 54, (S)-8-(6-((1-(4-(Difluoromethyl)phenyl)-4-methyl-1H-1,2,3-triazol-5-yl)methoxy)pyridazin-3-yl)hexahydro-2H-pyrazino[1,2-a]pyrazin-1(6H)-one]
– | 7.72 nM | 19.3 nM | – | 17 nM | Cc1nnn(-c2ccc(C(F)F)cc2)c1COc1ccc(N2CCN(C)C2=O)nn1 [Example 24, 1-(6-((1-(4-(Difluoromethyl)phenyl)-4-methyl-1H-1,2,3-triazol-5-yl)methoxy)pyridazin-3-yl)-3-methylimidazolidin-2-one]
– | 1 nM | 122 nM | 17 nM | 26.2 nM | Cc1nnn(-c2ccc(C(F)F)cc2)c1COc1ccc(N2CC(=O)NC(C)(C)C2)nn1 [Example 7, 4-(6-((1-(4-(Difluoromethyl)phenyl)-4-methyl-1H-1,2,3-triazol-5-yl)methoxy)pyridazin-3-yl)-6,6-dimethylpiperazin-2-one]
48.4% | 2.69 nM | 87 nM | – | 38.6 nM | Cc1nnn(-c2ccc(C(F)F)cc2)c1COc1ccc(N2CCN(C)C(=O)C2)cn1 [Example 22, 4-(6-((1-(4-(Difluoromethyl)phenyl)-4-methyl-1H-1,2,3-triazol-5-yl)methoxy)pyridin-3-yl)-1-methylpiperazin-2-one]

SMILES | inhibition at 0.1 µM [1] | Ki [2] | Ki [3] | Ki [4] | Ki [5]
Cc1nnn(-c2ccc(C(F)F)cc2)c1COc1ccc(N2CCN(CCN3CCOCC3)C(=O)C2)nn1 [Example 95, 4-(6-((1-(4-(Difluoromethyl)phenyl)-4-methyl-1H-1,2,3-triazol-5-yl)methoxy)pyridazin-3-yl)-1-(2-morpholinoethyl)piperazin-2-one] | 51.9% | 0.67 nM | 6.23 nM | – | –
CCNC(=O)C1CN(c2ccc(OCc3c(C)nnn3-c3ccc(C(F)F)cc3)nn2)C1 [Example 43, 1-(6-[(1-(4-(Difluoromethyl)phenyl)-4-methyl-1H-1,2,3-triazol-5-yl)methoxy]pyridazin-3-yl)-N-ethylazetidine-3-carboxamide] | 52.2% | 4.49 nM | 149 nM | 18.5 nM | 72.7 nM
